From patent US11033539B2, “Compounds of formulas (VII), (VIII), (IX), (XI), (XII), (XIII), and (XIV) as muscarinic receptor 4(M4) antagonists for treating neurological diseases” (Neurocrine Biosciences, Inc., priority 2015, dated 2021)

Target: human M4 receptor (Homo sapiens (Human), UniProt P08173)
Assay: Radioligand (tritiated N-methylscopolamine) binding assay, M4
Settings: Ki against the M4 receptor; membranes from CHO cells expressing human M4; tritiated N-methylscopolamine 1.5 nM; read-out: Ki
Procedure, shortened: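 Ki from displacement of 1.5 nM [3H]N-methylscopolamine on membranes of CHO cells expressing each human receptor. Twelve compound concentrations (10 μM to […]), 90 min at 37° C in 50 mM HEPES, 100 mM NaCl, 5 mM MgCl2, 1 mM EDTA, pH 7.4. Bound ligand was captured by PEI-treated glass-fiber filtration and counted.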

human M4 receptor, sequence (P08173 whole entry): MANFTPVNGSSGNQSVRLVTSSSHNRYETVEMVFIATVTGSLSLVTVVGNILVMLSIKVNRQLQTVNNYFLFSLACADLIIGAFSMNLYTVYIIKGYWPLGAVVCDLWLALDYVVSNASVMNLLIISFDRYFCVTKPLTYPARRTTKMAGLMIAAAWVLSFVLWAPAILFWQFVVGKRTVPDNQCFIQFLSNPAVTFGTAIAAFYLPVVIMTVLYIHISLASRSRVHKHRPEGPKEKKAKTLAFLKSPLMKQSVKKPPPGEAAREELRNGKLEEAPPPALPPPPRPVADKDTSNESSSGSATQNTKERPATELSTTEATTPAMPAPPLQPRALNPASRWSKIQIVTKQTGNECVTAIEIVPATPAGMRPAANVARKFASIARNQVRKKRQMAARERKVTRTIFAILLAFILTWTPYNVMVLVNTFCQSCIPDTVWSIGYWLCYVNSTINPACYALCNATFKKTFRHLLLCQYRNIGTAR

Compound	Ki
C[C@@H]1CN(c2ncc(C(F)(F)F)cn2)CCN1C(=O)NCCC1CCN(Cc2cncnc2)CC1 [6-39, (2R)-2-methyl-N-{2-[1-(pyrimidin-5-ylmethyl)piperidin-4-yl]ethyl}-4-[5-(trifluoromethyl)pyrimidin-2-yl]piperazine-1-carboxamide]	0.1 to 1 µM
C[C@@H]1CN(c2ncccn2)CCN1C(=O)NCCC1CCN(Cc2ccccc2)CC1 [4-64, (2R)-N-[2-(1-benzylpiperidin-4-yl)ethyl]-2-methyl-4-(pyrimidin-2-yl)piperazine-1-carboxamide]	0.1 to 1 µM
C[C@@H]1CN(c2cc(F)c(F)c(F)c2)CCN1C(=O)NCCC1CCN(Cc2ccc(C#N)cc2F)CC1 [6-30, (2R)-N-(2-{1-[(4-cyano-2-fluorophenyl)methyl]piperidin-4-yl}ethyl)-2-methyl-4-(3,4,5-trifluorophenyl)piperazine-1-carboxamide]	0.1 to 1 µM
C[C@@H]1CN(c2ncc(C(F)(F)F)cn2)CCN1C(=O)NCCC1CCN(Cc2cccnc2)CC1 [6-32, (2R)-2-methyl-N-{2-[1-(pyridin-3-ylmethyl)piperidin-4-yl]ethyl}-4-[5-(trifluoromethyl)pyrimidin-2-yl]piperazine-1-carboxamide]	0.01 to 0.1 µM
Cc1nnc(C(c2ccccc2)N2CCC(CCNC(=O)N3CCN(c4cc(F)c(F)c(F)c4)C[C@H]3C)CC2)o1 (stereo partly drawn) [6-19, (2R)-2-methyl-N-(2-{1-[(5-methyl-1,3,4-oxadiazol-2-yl)(phenyl)methyl]piperidin-4-yl}ethyl)-4-(3,4,5-trifluorophenyl)piperazine-1-carboxamide]	0.1 to 1 µM
C[C@@H]1CN(c2cc(F)c(F)c(F)c2)CCN1C(=O)NCCN1CCN(Cc2ccccc2)CC1 [7-6, (2R)-N-[2-(4-benzylpiperazin-1-yl)ethyl]-2-methyl-4-(3,4,5-trifluorophenyl)piperazine-1-carboxamide]	0.1 to 1 µM
C[C@@H]1CN(c2cncc(F)c2)CCN1C(=O)NCCC1CCN(Cc2ccccc2)CC1 [4-61, (2R)-N-[2-(1-benzylpiperidin-4-yl)ethyl]-4-(5-fluoropyridin-3-yl)-2-methylpiperazine-1-carboxamide]	0.1 to 1 µM
O=C(NCCC1CCN(Cc2ccccc2)CC1)N1CCC(c2ccc(Cl)cc2)CC1 [8-4, N-[2-(1-benzylpiperidin-4-yl)ethyl]-4-(4-chlorophenyl)piperidine-1-carboxamide]	0.01 to 0.1 µM
C[C@@H]1CN(c2ccc(F)c(C#N)c2)CCN1C(=O)N(C)CCC1CCN(Cc2ccccc2)CC1 [3-4, (2R)-N-[2-(1-benzylpiperidin-4-yl)ethyl]-4-(3-cyano-4-fluorophenyl)-N,2-dimethylpiperazine-1-carboxamide]	0.1 to 1 µM
C[C@@H]1CN(c2ncc(C(F)(F)F)cn2)CCN1C(=O)NCCC1CCN(Cc2ccccc2C#N)CC1 [6-34, (2R)-N-(2-{1-[(2-cyanophenyl)methyl]piperidin-4-yl}ethyl)-2-methyl-4-[5-(trifluoromethyl)pyrimidin-2-yl]piperazine-1-carboxamide]	0.1 to 1 µM
CN(C(=O)NCCC1CCN(Cc2ccccc2)CC1)C1CCN(c2ncc(C(F)(F)F)cc2Cl)C1 (stereo not drawn) [8-16, 1-[2-(1-benzylpiperidin-4-yl)ethyl]-3-{1-[3-chloro-5-(trifluoromethyl)pyridin-2-yl]pyrrolidin-3-yl}-3-methylurea]	0.01 to 0.1 µM
C[C@@H]1CN(c2nc(F)c(F)c(F)n2)CCN1C(=O)NCCC1CCN(Cc2ccccc2)CC1 [5-6, (2R)-N-[2-(1-benzylpiperidin-4-yl)ethyl]-2-methyl-4-(trifluoropyrimidin-2-yl)piperazine-1-carboxamide]	0.01 to 0.1 µM

Now from value to compound:

Ki	Compound
0.1 to 1 µM	COC1(C(=O)NCCC2CCN(Cc3ccccc3)CC2)CCN(c2ccc(C(F)(F)F)cn2)CC1 [10-48, N-[2-(1-benzylpiperidin-4-yl)ethyl]-4-methoxy-1-[5-(trifluoromethyl)pyridin-2-yl]piperidine-4-carboxamide]
0.1 to 1 µM	O=C(NCCC1CCN(Cc2ccccc2)CC1)[C@@H]1CCN(c2ccc(OC(F)(F)F)cc2)C1 [10-72, (3R)-N-[2-(1-benzylpiperidin-4-yl)ethyl]-1-[4-(trifluoromethoxy)phenyl]pyrrolidine-3-carboxamide]
0.01 to 0.1 µM	COc1ccc(N2CCC(C(=O)NCCC3CCN(Cc4ccccc4)CC3)CC2)cc1OC(F)(F)F [10-33, N-[2-(1-benzylpiperidin-4-yl)ethyl]-1-[4-methoxy-3-(trifluoromethoxy)phenyl]piperidine-4-carboxamide]
0.01 to 0.1 µM	O=C(NCCC1CCN(Cc2ccccc2)CC1)C1CCN(c2ccc(OC(F)(F)F)cc2F)CC1 [10-37, N-[2-(1-benzylpiperidin-4-yl)ethyl]-1-[2-fluoro-4-(trifluoromethoxy)phenyl]piperidine-4-carboxamide]
0.1 to 1 µM	CC(c1ccccc1)N1CCC(CCNC(=O)c2ccc(OCc3ccccc3)cc2)CC1 (stereo not drawn) [11-14, 4-(benzyloxy)-N-{2-[1-(1-phenylethyl)piperidin-4-yl]ethyl}benzamide]
0.1 to 1 µM	O=C(c1ccn2cc(-c3ccc(OC(F)(F)F)cc3)nc2c1)N(C1CC1)C1CCN(Cc2ccccc2)CC1 [9-48, N-(1-benzylpiperidin-4-yl)-N-cyclopropyl-2-[4-(trifluoromethoxy)phenyl]imidazo[1,2-a]pyridine-7-carboxamide]
0.01 to 0.1 µM	C[C@@H]1CN(c2ccc(Cl)nc2)CCN1C(=O)NCCC1CCN(Cc2ccccc2)CC1 [22-11]
0.01 to 0.1 µM	Cc1c(C(=O)NCCC2CCN(Cc3ccccc3)CC2)cnc2cc(-c3ccc(Cl)cc3)nn12 [17-4, N-[2-(1-benzylpiperidin-4-yl)ethyl]-2-(4-chlorophenyl)-7-methylpyrazolo[1,5-a]pyrimidine-6-carboxamide]
0.1 to 1 µM	O=C(Cc1ccc(OCc2ccccc2)cc1)NCCC1CCN(Cc2ccccc2)CC1 [9-43, 2-[4-(benzyloxy)phenyl]-N-[2-(1-benzylpiperidin-4-yl)ethyl]acetamide]
0.1 to 1 µM	N#Cc1ccc(N2CCC(C(=O)NCCC3CCN(CC4CCCCC4)CC3)CC2)nc1 [11-8, 1-(5-cyanopyridin-2-yl)-N-{2-[1-(cyclohexylmethyl)piperidin-4-yl]ethyl}piperidine-4-carboxamide]
0.1 to 1 µM	Cc1c(C(=O)NCCC2CCN(Cc3ccccc3)CC2)cnc2cc(-c3ccc(C#N)cc3)nn12 [18-3]
0.01 to 0.1 µM	C[C@@H]1CN(c2ncc(C#N)cn2)C[C@H](C)N1C(=O)NCCC1CCN(CC2CCCCC2)CC1 [21-1, (2R,6S)-4-(5-cyanopyrimidin-2-yl)-N-{2-[1-(cyclohexylmethyl)piperidin-4-yl]ethyl}-2,6-dimethylpiperazine-1-carboxamide]
0.1 to 1 µM	O=C(NCCC1CCN(Cc2ccccc2)CC1)[C@@H]1CCN(c2cccc(OC(F)(F)F)c2)C1 [10-49, (3R)-N-[2-(1-benzylpiperidin-4-yl)ethyl]-1-[3-(trifluoromethoxy)phenyl]pyrrolidine-3-carboxamide]
0.1 to 1 µM	N-(2-{1-[(4-hydroxyphenyl)methyl]piperidin-4-yl}ethyl)-4-phenoxybenzamide [11-10]
0.01 to 0.1 µM	O=C(NCCC1CCN(Cc2ccccc2O)CC1)c1ccc(OCc2ccccc2)cc1 [11-3, 4-(benzyloxy)-N-(2-{1-[(2-hydroxyphenyl)methyl]piperidin-4-yl}ethyl)benzamide]
0.1 to 1 µM	O=C(CCC1CCN(Cc2ccccc2)CC1)NC1CCN(c2cccc(OC(F)(F)F)c2)CC1 [9-50, 3-(1-benzylpiperidin-4-yl)-N-{1-[3-(trifluoromethoxy)phenyl]piperidin-4-yl}propanamide]
0.1 to 1 µM	O=C(NCCC1CCN(Cc2ccccc2)CC1)C1(O)CCN(c2ccc(OC(F)(F)F)cn2)CC1 [10-61, N-[2-(1-benzylpiperidin-4-yl)ethyl]-4-hydroxy-1-[5-(trifluoromethoxy)pyridin-2-yl]piperidine-4-carboxamide]
0.1 to 1 µM	COc1cccc(CN2CCC(CCNC(=O)c3cnc4cc(-c5ccccc5)nn4c3C)CC2)c1 [19-7]
0.1 to 1 µM	CCN(C)C(=O)c1cnc(N2CCN(C(=O)NCCC3CCN(Cc4ccccc4)CC3)[C@H](C)C2)nc1 [27-9]
0.01 to 0.1 µM	N#Cc1cc(N2CCC(C(=O)NCCC3(O)CCN(Cc4ccccc4)CC3)CC2)ccc1F [9-44, N-[2-(1-benzyl-4-hydroxypiperidin-4-yl)ethyl]-1-(3-cyano-4-fluorophenyl)piperidine-4-carboxamide]
0.01 to 0.1 µM	Cc1ccc(-c2ccc(C(=O)NCCC3CCN(Cc4ccccc4)CC3)c(F)c2)cc1 [9-40, N-[2-(1-benzylpiperidin-4-yl)ethyl]-2-fluoro-4-(4-methylphenyl)benzamide]
0.1 to 1 µM	O=C(C1CCN(c2ccc(OC(F)(F)F)cc2)CC1)N(CCO)CCC1CCN(Cc2ccccc2)CC1 [9-3, N-[2-(1-benzylpiperidin-4-yl)ethyl]-N-(2-hydroxyethyl)-1-[4-(trifluoromethoxy)phenyl]piperidine-4-carboxamide]
0.01 to 0.1 µM	N#Cc1ccc(N2CCC(C(=O)NCCC3CCN(Cc4ccccc4)CC3)CC2)cc1F [10-78, N-[2-(1-benzylpiperidin-4-yl)ethyl]-1-(4-cyano-3-fluorophenyl)piperidine-4-carboxamide]
0.1 to 1 µM	4-phenoxy-N-{2-[1-(3-phenylpropyl)piperidin-4-yl]ethyl}benzamide [11-28]
< 0.01 µM	C[C@@H]1CN(c2ncc(C(F)(F)F)cn2)C[C@@H](C)N1C(=O)NCCC1CCN(Cc2ccccc2)CC1 [26-5, (2R,6R)-N-[2-(1-benzylpiperidin-4-yl)ethyl]-2,6-dimethyl-4-[5-(trifluoromethyl)pyrimidin-2-yl]piperazine-1-carboxamide]
0.1 to 1 µM	COc1ccc(-c2cc(C(F)(F)F)n3nc(C(=O)NCCC4CCN(Cc5ccccc5)CC4)cc3n2)cc1 [9-59, N-[2-(1-benzylpiperidin-4-yl)ethyl]-5-(4-methoxyphenyl)-7-(trifluoromethyl)pyrazolo[1,5-a]pyrimidine-2-carboxamide]
0.01 to 0.1 µM	CN(C1CCN(C(=O)C2CCN(c3ccc(OC(F)(F)F)cc3)CC2)CC1)[C@@H]1CCN(Cc2ccccc2)C1 [9-33, N-[(3R)-1-benzylpyrrolidin-3-yl]-N-methyl-1-{1-[4-(trifluoromethoxy)phenyl]piperidine-4-carbonyl}piperidin-4-amine]
